In the supplement of paper PMC10933113:
Structures can show the parent of a compound that is named as a salt. ± gives the uncertainty stated by the source.

Assays:
[1] = tested on: THP-1; assay: efficacy of IL-8 induction relative to DMSO (% activity); higher = stronger induction; conditions: exposure time: 18 h
[2] = tested on: cysteine peptide Ac-RFAACAA-COOH; assay: AC50 of cysteine peptide concentration-response (direction given by sign of efficacy); higher = less potent; conditions: incubation time: 24 h
[3] = tested on: KeratinoSens (HaCaT ARE-luciferase) cells; assay: efficacy of ARE luciferase induction relative to DMSO (% activity over DMSO); higher = stronger induction; conditions: exposure time: 24 h
[4] = tested on: cysteine peptide Ac-RFAACAA-COOH; assay: efficacy of cysteine peptide change (negative = depletion) (% activity); higher = less depletion; conditions: incubation time: 24 h
[5] = tested on: lysine peptide Ac-RFAAKAA-COOH; assay: efficacy of lysine peptide change (negative = depletion) (% activity); higher = less depletion; conditions: incubation time: 24 h
[6] = tested on: KeratinoSens (HaCaT ARE-luciferase) cells; assay: cytotoxicity AC50 (CellTiter-Fluor viability); higher = less cytotoxic; conditions: exposure time: 24 h
[7] = tested on: KeratinoSens (HaCaT ARE-luciferase) cells; assay: AC50 of Nrf2/ARE luciferase induction; higher = less potent; conditions: exposure time: 24 h

Row | Compound | efficacy of IL-8 induction [1] | AC50 [2] [µM] | efficacy of ARE luciferase induction [3] | efficacy of cysteine peptide change [4] | efficacy of lysine peptide change [5] | cytotoxicity AC50 [6] [µM] | AC50 of Nrf2/ARE luciferase induction [7] [µM]
1 | CCOP(=S)(OCC)Oc1nc(Cl)c(Cl)cc1Cl [Chlorpyrifos] | 8.52 ± 1.5 | 9.18 ± 2.6 | 32.7 ± 17 | -97.5 ± 7.8 | 26.7 ± 11 |  | 
2 | COC(=O)Nc1nc2ccc(C(=O)C3CC3)cc2[nH]1 [Cyclobendazole] | 24.9 ± 13 | 10.1 ± 5.7 | 21.4 ± 9.4 | -42.3 ± 2.6 | -14 ± 5.3 | 3 ± 0.85 | 
3 | O=C1c2cccc(O)c2C(=O)c2c(O)cccc21 [Danthron] | 2.66 ± 9.7 | 4.77 ± 1.4 | 15 ± 14 | -72.3 ± 21 | -14.7 ± 8 |  | 
4 | CCOP(=S)(OCC)SC(CCl)N1C(=O)c2ccccc2C1=O (stereo unspecified) [Dialifor] | 5.64 ± 12 | 3.87 ± 0.66 | 63 ± 32 | -101 ± 9.9 | -69.5 ± 7.4 | 66.8 ± 15 | 
5 | CCCCC/C=C\C=C\C(=O)OCC [Ethyl (2E,4Z)-deca-2,4-dienoate] | 24.4 ± 5.7 | 13.7 ± 2.3 | 68.2 ± 0.72 | -99.8 ± 5.5 | -21.2 ± 2.9 |  | 
6 | CO[C@@H]1[C@H](OC(=O)/C=C/C=C/C=C/C=C/C(=O)O)CC[C@]2(CO2)[C@H]1[C@@]1(C)O[C@@H]1CC=C(C)C [Fumagillin] | 0 | 23 ± 9 | -9.86 ± 16 | -117 ± 8.1 | 19.2 ± 21 |  | 
7 | OCc1ccco1 [Furfuryl alcohol] | 0 | 74.3 ± 13 | 37.8 ± 37 | -74.1 ± 7.2 | -37.2 ± 5.8 |  | 
8 | CC[C@@]1(O)C(=O)OCc2c1cc1n(c2=O)Cc2c-1nc1ccccc1c2/C=N/OC(C)(C)C [Gimatecan] | 24.2 ± 3.5 | 38.5 ± 5.3 | 57.7 ± 22 | -75.2 ± 18 | 30.4 ± 65 | 0.99 ± 0.6 | 
9 | OC12N=C(c3ccccc3)SC1Cc1cc(Cl)ccc12 (stereo unspecified) [HMR1426] | 0 |  | 86.8 ± 69 |  |  |  | 28.9
10 | ClC1=C(Cl)C(Cl)(Cl)C(Cl)=C1Cl [Hexachlorocyclopentadiene] | 83.1 ± 8.1 | 30.4 ± 13 | 48.2 ± 5.1 | -137 ± 8.4 | -11.3 ± 2.7 |  | 
11 | COP(=S)(Oc1cc(Cl)c(Br)cc1Cl)c1ccccc1 (stereo unspecified) [Leptophos] | 33.4 ± 20 | 41.6 ± 5.3 | 21.4 ± 11 | -94.8 ± 3.7 | 3.37 ± 19 | 46.5 ± 3.1 | 
12 | C=CC(C)(CCC=C(C)C)OC(=O)CC(C)C (stereo unspecified) [Linalyl isovalerate] | 0 | 6.04 ± 4.1 | 4.06 ± 7 | -30.6 ± 8 | 2.12 ± 19 |  | 
13 | CCOC(=O)CC(SP(=S)(OC)OC)C(=O)OCC (stereo unspecified) [Malathion] | 1.28 ± 2.2 | 3.05 ± 0.2 | 10.2 ± 27 | -114 ± 8.5 | 38.6 ± 20 |  | 
14 | CC(C)Nc1ccc(Nc2ccccc2)cc1 [N-Isopropyl-N'-phenyl-p-phenylenediamine] | 40.6 ± 19 | 2.82 ± 1 | -24.8 ± 11 | -67.5 ± 20 | -5.38 ± 9.3 | 20.5 ± 6.5 | 
15 | Nc1ccc(Nc2ccccc2)cc1 [N-Phenyl-1,4-benzenediamine] | 5.67 ± 11 | 7.77 ± 3.2 | 48.5 ± 28 | -101.7 ± 0.97 | -11.4 ± 12 |  | 
16 | CCCCCCCCCCCC(=O)NCCCN(C)C [N-[3-(Dimethylamino)propyl]dodecanamide] | 36.3 ± 13 |  | 4.32 ± 44 | 18 ± 19 | 168 ± 11 | 42.1 ± 9.5 | 

Row | Compound | efficacy of IL-8 induction [1] | AC50 [2] [µM] | efficacy of ARE luciferase induction [3] | efficacy of cysteine peptide change [4] | efficacy of lysine peptide change [5] | cytotoxicity AC50 [6] [µM] | AC50 of Nrf2/ARE luciferase induction [7] [µM]
17 | O=C(O)c1ccccc1C(=O)Nc1cccc2ccccc12 [Naptalam*] | 7.99 ± 7 | 4 ± 1.3 | 61.4 ± 78 | -104 ± 4.3 | 10.2 ± 26 | 25.1 | 
18 | O=C(N/N=C/c1ccc([N+](=O)[O-])o1)c1cc([N+](=O)[O-])cc([N+](=O)[O-])c1O [Nifursol] | 0 | 77.9 ± 29 | 25.2 ± 9.3 | -105 ± 6.6 | -10.9 ± 19 |  | 
19 | CCCCC1C(=O)N(c2ccccc2)N(c2ccc(O)cc2)C1=O (stereo unspecified) [Oxyphenbutazone] | 31.1 ± 25 | 2.39 ± 0.7 | 221 ± 160 | -95.2 ± 6.3 | 12.6 ± 12 | 11.7 ± 0.79 | 
20 | Nc1ccc(/N=N/c2ccccc2)c(N)n1 [Phenazopyridine hydrochloride] | 51.3 ± 29 |  | 35.5 ± 17 | -35 ± 6.8 | 26.2 ± 4.5 | 66.8 ± 15 | 
21 | N#CCC#N [Propanedinitrile] | 0 | 72.9 ± 20 | 31.6 ± 5.9 | -64.6 ± 10 | 8.33 ± 14 |  | 
22 | Fc1ccc(Oc2ccnc3cc(Cl)cc(Cl)c23)cc1 [Quinoxyfen] | 25.9 ± 3.1 |  | -5.76 ± 35 | 3.98 ± 6.9 | -7.82 ± 12 | 57 ± 12 | 
23 | Oc1ccc(/C=C/c2cc(O)cc(O)c2)cc1 [Resveratrol] | 3.12 ± 5.4 | 25.9 ± 11 | 29.2 ± 6.2 | -69.8 ± 10 | -22.5 ± 15 |  | 
24 | C[n+]1cc2c3c(ccc2c2ccc4cc5c(cc4c21)OCO5)OCO3 [Sanguinarine] | 59.1 ± 21 |  | -34.7 ± 1.6 | 58.9 ± 18 | 114 ± 27 | 7.37 ± 0.5 | 
25 | NC(=O)n1c(O)c(C(=O)c2cccs2)c2cc(Cl)ccc21 [Tenidap*] | 4.22 ± 7.3 | 50.1 | 19.7 ± 5.4 | -110 ± 11 | 11.2 ± 11 | 53.4 ± 15 | 
26 | CCCCCCCCCCCCCC[N+](C)(C)C [Tetradonium bromide] | 43 ± 20 |  | -21.2 ± 4.7 | 61.4 ± 19 | 103 ± 44 | 14.2 ± 1.6 | 
27 | c1ccc2[nH]c(-c3cscn3)nc2c1 [Thiabendazole] | 11.1 ± 3.7 |  | 33 ± 4.4 | 2.83 ± 4.9 | 0.27 ± 31 | 14.8 ± 1.9 | 
28 | CS/C(C)=N\OC(=O)N(C)SN(C)C(=O)O/N=C(\C)SC [Thiodicarb] | 10.8 ± 9.8 | 0.59 ± 0.11 | -25.2 ± 33 | -96.8 ± 3.2 | 38.2 ± 2.7 |  | 
29 | O=C(CS)Nc1ccccc1 [Thioglycolic acid anilide] | 35.1 ± 9.2 | 2.54 ± 0.48 | -15.9 ± 47 | -109 ± 7.9 | 28 ± 5.4 |  | 
30 | CCN(CC)CCSC(=O)C(c1ccccc1)c1ccccc1 [Thiphenamil] | 8.63 ± 8 | 18.7 ± 3.4 | 63.3 ± 29 | -82.9 ± 1.6 | 17.2 ± 18 |  | 
31 | [OH-].c1cc[c]([Sn+]([c]2ccccc2)[c]2ccccc2)cc1 [Triphenyltin hydroxide] | 16.4 ± 2.2 |  | 429 ± 120 | -39.1 ± 94 | 14.6 ± 2.5 | 2.82 | 
32 | CCC(C)(NC(=O)c1cc(Cl)c(C)c(Cl)c1)C(=O)CCl (stereo unspecified) [Zoxamide] | 84.9 ± 14 |  | 60.2 ± 4.2 | -8.25 ± 7.4 | 19.4 ± 7.3 | 41.4 ± 2.8 | 
